Source: PubChem BioAssay (NCI)
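Five compound concentrations were applied to cells in 96-well plates for 48 hours; endpoints were derived by simple linear interpolation of the resulting dose-response curve. At the GI50, growth is halved. Definition used: TGI = concentration required for complete inhibition of growth.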

Legend:
Test in all cases: DTP human tumour cell line panel, 48 h
[1] = tested on: ACHN renal
[2] = tested on: HCT-15 colon
[3] = tested on: HOP-62 NSCLC
[4] = tested on: HOP-92 NSCLC
[5] = tested on: SK-MEL-2 melanoma
[6] = tested on: SK-MEL-28 melanoma
[7] = tested on: SN12C renal
[8] = tested on: SNB-19 CNS
[9] = tested on: TK-10 renal
[10] = tested on: PC-3 prostate

Row | SMILES | TGI [1] [µM] | TGI [2] [µM] | TGI [3] [µM] | TGI [4] [µM] | TGI [5] [µM] | TGI [6] [µM] | TGI [7] [µM] | TGI [8] [µM] | TGI [9] [µM] | GI50 [1] [µM] | GI50 [2] [µM] | GI50 [3] [µM] | GI50 [4] [µM] | GI50 [10] [µM] | TGI [10] [µM] | GI50 [5] [µM] | GI50 [6] [µM] | GI50 [7] [µM] | GI50 [8] [µM] | GI50 [9] [µM]
1 | Cc1cc(-c2ccccc2)nc(Nc2cc3ccccc3[nH]2)n1 | > 100 | > 100 | > 100 | > 100 | > 100 | > 100 | > 100 | > 100 | > 100 | – | – | – | – | – | – | – | – | – | – | –
2 | CN1C(=O)N(C)C2C1NC(=S)N2/N=C/C=C/c1ccccc1[N+](=O)[O-] (stereo unspecified) | > 100 | > 100 | > 100 | > 100 | > 100 | > 100 | > 100 | > 100 | – | 0.988 | 0.889 | 1.01 | 57.7 | 0.967 | > 100 | 0.587 | 3.7 | 6.82 | 0.952 | –
3 | O=C(Nc1ccc(Br)c2ccccc12)c1ccc2ccccc2c1O | > 100 | 7.1 | 14.8 | – | 3 | 48.1 | 24.9 | > 100 | 30.3 | – | – | – | – | – | 6.21 | – | – | – | – | –
4 | C=CCC1(CN(C)C)CC/C(=C\c2ccc3c(c2)OCO3)C1=O (stereo unspecified) | > 100 | > 100 | > 100 | > 100 | > 100 | > 100 | > 100 | > 100 | > 100 | – | – | – | – | – | – | – | – | – | – | –
5 | O=C(Nc1cccc([N+](=O)[O-])c1)c1cccc(C(=O)Nc2cccc([N+](=O)[O-])c2)c1 | > 100 | > 100 | > 70.5 | 60.7 | – | > 100 | > 100 | > 100 | > 61.3 | > 100 | > 100 | 21.9 | 8.85 | > 100 | > 100 | – | > 100 | 60.3 | 28.6 | 9.71
6 | C[C@]12CC[C@H]3[C@@H](CC[C@]4(O)C[C@@H](O)CC[C@]34C=O)[C@@]1(O)CC[C@@H]2C1=CC(=O)OC1 | 1.49 | 1.47 | 0.533 | – | 2.86 | 4.84 | 1.8 | 4.87 | 1.63 | – | – | – | – | – | 4.56 | – | – | – | – | –
7 | CCC(O)CCCCCCCCCCCCCCC(=O)O (stereo unspecified) | > 100 | – | > 100 | > 100 | > 100 | > 100 | > 100 | > 100 | > 100 | – | – | – | – | – | – | – | – | – | – | –
8 | CCOC(=O)N1CCC(N=C2CSc3nnc(-c4cc(C(F)(F)F)cc(C(F)(F)F)c4)n3N2)CC1 | 5.99 | 5.4 | 4.03 | 5 | 3.6 | 3.75 | 3.57 | 11.9 | – | 2.53 | 2.29 | 2.17 | 1.97 | 2.2 | 6.27 | 2 | 1.87 | 1.7 | 3.14 | –
9 | CCO/C=C\C12CCCC1NC(c1ccccc1)(c1ccccc1)O2 (stereo unspecified) | 92.5 | – | > 100 | 52.3 | 45.7 | > 100 | 78.3 | > 100 | > 100 | – | – | – | – | – | – | – | – | – | – | –
10 | CN(C(=O)C(C)(C)C)c1ccccc1I(=O)=O | > 100 | > 100 | – | 96.7 | > 100 | > 100 | > 100 | > 100 | > 100 | > 100 | 84.3 | – | 15.9 | – | – | > 100 | 92.5 | > 100 | > 100 | > 100
11 | C/C(=N\N=C(N)N)C(CN1CCOCC1)C(c1ccccc1)c1c(O)c2ccccc2oc1=O (stereo unspecified) | > 100 | > 100 | > 100 | 96.9 | > 100 | > 100 | > 100 | > 100 | > 100 | – | – | – | – | – | – | – | – | – | – | –
12 | COc1ccc(C(C2=C(O)CC(C)OC2=O)C2=C(O)CC(C)OC2=O)cc1 (stereo unspecified) | > 100 | > 100 | > 100 | – | > 100 | > 100 | > 100 | > 100 | – | – | – | – | – | – | – | – | – | – | – | –
13 | CC1C(c2ccccc2)N(C)C(c2ccccc2)C(C)C1(O)c1ccccc1 (stereo unspecified) | > 100 | > 100 | > 100 | > 100 | > 100 | > 100 | > 100 | > 100 | > 100 | – | – | – | – | – | – | – | – | – | – | –
14 | Cc1ccc(/C=C2\CCCCC2=O)cc1 | > 100 | > 100 | > 100 | – | – | > 100 | > 100 | – | > 100 | – | – | – | – | – | – | – | – | – | – | –
15 | COc1cc(/C=C2\[C@@H]3NC(Cc4c(OC)c(C)c(OC)c(OC)c43)C(=O)N2Cc2ccccc2)c(OC)c(C)c1OC | > 100 | – | > 100 | 69.1 | 36.3 | > 100 | > 100 | > 100 | > 100 | – | – | – | – | – | – | – | – | – | – | –
16 | CCCCCCCCCC1CC(=O)OC2=C1C(=O)CCC2 (stereo unspecified) | > 100 | – | > 100 | > 100 | > 100 | > 100 | > 100 | > 100 | > 100 | – | – | – | – | – | – | – | – | – | – | –
17 | O=C(Nc1nc2c(C(F)(F)F)cccc2s1)c1cc(Cl)ccc1O | 0.961 | 13.2 | 19.3 | 0.705 | – | 8.18 | 1.53 | 65.6 | 10.7 | 0.295 | 0.338 | 0.312 | 0.188 | 0.302 | 30.3 | – | 0.331 | 0.289 | 0.345 | 0.365
18 | CC(=O)C1=C(C)N(Cc2ccccc2)C2(O)C=CC(=O)C3=C(O)c4ccccc4C(=O)C312 (stereo unspecified) | – | 4.51 | 34.3 | 7.77 | > 100 | 6.1 | 3.6 | 44.1 | 6.18 | – | 1.81 | 13.5 | 3.73 | 10.3 | 31.2 | 20.8 | 2.36 | 1.82 | 16 | 2.82
19 | O=[N+]([O-])c1ccc2c(c1)C(N1CCN(CCO)CC1)Cc1ccc(F)cc1S2 (stereo unspecified) | 16.7 | 19 | 43.8 | – | – | 6.06 | 28.9 | 24.6 | 27.8 | – | – | – | – | – | 15.4 | – | – | – | – | –
20 | CC1(c2ccc(F)cc2)C2C(=O)NC(=O)C1C(=O)NC2=O (stereo unspecified) | > 100 | > 100 | – | > 100 | > 100 | > 100 | > 100 | > 100 | > 100 | – | – | – | – | – | – | – | – | – | – | –
